Reference: the supplement of paper PMC11061612

Columns and labels:
Assay in all cases: Bliss excess, mean over the matrix (fraction); higher = more synergy
COLO-829 (Melanoma) = system: COLO-829 (Melanoma)
How it was run: (§1)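 Bliss excess equals the observed combination effect minus the expected value EA + EB − EA·EB, where EA and EB are the effects of each agent alone. Combination Emax is the second-highest inhibition within the matrix. Inhibition was scaled from CellTiter-Glo 2.0 luminescence, with 0 set by vehicle wells and 1 by blank wells, after 72 hours of two-drug dosing of cells plated in 1536-well plates.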

[1] = system: HCC-15 (Squamous Cell Lung Carcinoma)
How it was run: as §1

HMV-II (Melanoma) = system: HMV-II (Melanoma)
How it was run: as §1

[2] = system: HO-1-u-1 (Oral Cavity Carcinoma)
How it was run: as §1

[3] = system: Hs-633T (Other Solid Carcinomas)
How it was run: as §1

[4] = system: K5 (Thyroid Gland Carcinoma)
How it was run: as §1

[5] = system: KARPAS-231 (B-Cell Non-Hodgkin's Lymphoma)
How it was run: as §1

[6] = system: KYSE-410 (Esophageal Squamous Cell Carcinoma)
How it was run: as §1

NB14 (Neuroblastoma) = system: NB14 (Neuroblastoma)
How it was run: as §1

NCI-H2795 (Mesothelioma) = system: NCI-H2795 (Mesothelioma)
How it was run: as §1

[7] = system: NCI-H69 (Small Cell Lung Carcinoma)
How it was run: as §1

[8] = system: OC-314 (Ovarian Carcinoma)
How it was run: as §1

[9] = system: RKO (Colorectal Carcinoma)
How it was run: as §1

[10] = system: RT-112 (Bladder Carcinoma)
How it was run: as §1

SH-4 (Melanoma) = system: SH-4 (Melanoma)
How it was run: as §1

[11] = system: SK-OV-3 (Ovarian Carcinoma)
How it was run: as §1

[12] = system: SW1116 (Colorectal Carcinoma)
How it was run: as §1

[13] = system: SW1271 (Small Cell Lung Carcinoma)
How it was run: as §1

[14] = system: SW626 (Colorectal Carcinoma)
How it was run: as §1

[15] = system: TE-4 (Esophageal Squamous Cell Carcinoma)
How it was run: as §1

SMILES	Bliss excess (COLO-829 (Melanoma))	Bliss excess [1]	Bliss excess (HMV-II (Melanoma))	Bliss excess [2]	Bliss excess [3]	Bliss excess [4]	Bliss excess [5]	Bliss excess [6]	Bliss excess (NB14 (Neuroblastoma))	Bliss excess (NCI-H2795 (Mesothelioma))	Bliss excess [7]	Bliss excess [8]	Bliss excess [9]	Bliss excess [10]	Bliss excess (SH-4 (Melanoma))	Bliss excess [11]	Bliss excess [12]	Bliss excess [13]	Bliss excess [14]	Bliss excess [15]
CCN(CCO)CCCOc1ccc2c(Nc3cc(CC(=O)Nc4cccc(F)c4)[nH]n3)ncnc2c1 [AZD2811] + O=C(c1cc(Cc2n[nH]c(=O)c3ccccc23)ccc1F)N1CCN(C(=O)C2CC2)CC1 [Olaparib] (first compound max 1 µM, 7x7, partner max 10 µM)	0.0233	-0.0123	-0.0302	0.0288	0	0.0162	0.0091	-0.0308	-0.0384	0.052	-0.0259	0.0254	0.0655	0.0427	-0.0234	-0.041	-0.0008	-0.0312	-0.0134	0.0049
CN(CCO)CC[C@H](CSc1ccccc1)Nc1ccc(S(=O)(=O)NC(=O)c2ccc(N3CCC([C@@H](O)c4ccccc4-c4ccc(Cl)cc4)CC3)cc2)cc1S(=O)(=O)C(F)(F)F [AZD4320] + C1CN(CCC1(C(=O)N[C@@H](CCO)C2=CC=C(C=C2)Cl)N)C3=NC=NC4=C3C=CN4 [Capivasertib] (first compound max 1 µM, 7x7, partner max 3 µM)	-0.0988	-0.0082	-0.0431	-0.0621	-0.0193	-0.0525	0.0407	-0.0686	0.0472	-0.0572	-0.0153	-0.0007	-0.0191	-0.039	-0.0462	-0.0663	-0.0612	-0.0606	-0.0682	-0.0317
CN(CCO)CC[C@H](CSc1ccccc1)Nc1ccc(S(=O)(=O)NC(=O)c2ccc(N3CCC([C@@H](O)c4ccccc4-c4ccc(Cl)cc4)CC3)cc2)cc1S(=O)(=O)C(F)(F)F [AZD4320] + C=CCn1c(=O)c2cnc(Nc3ccc(N4CCN(C)CC4)cc3)nc2n1-c1cccc(C(C)(C)O)n1 [AZD1775] (first compound max 1 µM, partner max 1 µM)	-0.0167	0.0202	0.0496	0.0066	0.0672	0.0069	0.117	-0.0313	0.0415	-0.0225	-0.0213	-0.0187	-0.0003	-0.0285	0.0103	0.0069	0.0003	0.0152	-0.0124	-0.0044
CN(CCO)CC[C@H](CSc1ccccc1)Nc1ccc(S(=O)(=O)NC(=O)c2ccc(N3CCC([C@@H](O)c4ccccc4-c4ccc(Cl)cc4)CC3)cc2)cc1S(=O)(=O)C(F)(F)F [AZD4320] + CCN(CCO)CCCOc1ccc2c(Nc3cc(CC(=O)Nc4cccc(F)c4)[nH]n3)ncnc2c1 [AZD2811] (first compound max 1 µM, 7x7, partner max 1 µM)	-0.0465	-0.0091	-0.0357	0.107	-0.0212	-0.0283	0.0493	-0.0437	0	0.0386	0.035	0.156	-0.0162	0.172	-0.0236	-0.0522	-0.0299	-0.0428	0.0278	-0.0186
CN(CCO)CC[C@H](CSc1ccccc1)Nc1ccc(S(=O)(=O)NC(=O)c2ccc(N3CCC([C@@H](O)c4ccccc4-c4ccc(Cl)cc4)CC3)cc2)cc1S(=O)(=O)C(F)(F)F [AZD4320] + CN(C)CCCOc1ccc(-c2ccc3ncc4c(c3c2)n(C2CCOCC2)c(=O)n4C)cn1 [AZD0156] (first compound max 1 µM, 7x7, partner max 1 µM)	-0.0481	-0.0137	-0.0267	0.0032	-0.014	-0.0779	0.0325	-0.0482	0.061	-0.0596	-0.0465	-0.0231	-0.0253	-0.0274	-0.0238	-0.0364	-0.069	-0.0413	-0.0545	-0.0285
CN(CCO)CC[C@H](CSc1ccccc1)Nc1ccc(S(=O)(=O)NC(=O)c2ccc(N3CCC([C@@H](O)c4ccccc4-c4ccc(Cl)cc4)CC3)cc2)cc1S(=O)(=O)C(F)(F)F [AZD4320] + C[C@@H]1COCCN1C2=NC(=NC(=C2)C3(CC3)[S@](=N)(=O)C)C4=C5C=CNC5=NC=C4 [AZD6738] (first compound max 1 µM, 7x7, partner max 10 µM)	-0.0409	-0.0124	-0.0476	0.021	-0.0092	-0.0512	-0.0331	-0.0723	-0.0372	0.0173	-0.0446	-0.0066	-0.0309	0.0135	-0.0411	-0.0984	-0.0406	-0.0085	-0.0606	0.028
CN(CCO)CC[C@H](CSc1ccccc1)Nc1ccc(S(=O)(=O)NC(=O)c2ccc(N3CCC([C@@H](O)c4ccccc4-c4ccc(Cl)cc4)CC3)cc2)cc1S(=O)(=O)C(F)(F)F [AZD4320] + Cc1cc2ncnn2cc1Nc1ncc2c(n1)n(C1CCOCC1)c(=O)n2C [AZD7648] (first compound max 1 µM, 7x7, partner max 10 µM)	-0.04	-0.0214	-0.0718	-0.0172	0.0109	-0.0105	0.036	-0.0406	0.0356	-0.0395	-0.0474	-0.0394	-0.0148	0.0058	-0.0459	-0.063	-0.0359	-0.0386	-0.0526	-0.0202
CN(CCO)CC[C@H](CSc1ccccc1)Nc1ccc(S(=O)(=O)NC(=O)c2ccc(N3CCC([C@@H](O)c4ccccc4-c4ccc(Cl)cc4)CC3)cc2)cc1S(=O)(=O)C(F)(F)F [AZD4320] + Cn1cnc2c(F)c(Nc3ccc(Br)cc3Cl)c(C(=O)NOCCO)cc21 [Selumetinib] (first compound max 1 µM, 7x7, partner max 3 µM)	-0.0351	0.0827	0.0015	0.0328	-0.0329	-0.0637	-0.006	0.0417	0.0033	-0.02	-0.0245	0.0048	0.0229	0.113	0.107	-0.0362	0.0737	0.0306	0.0271	0.0025
COc1nnc2ccc(N3CCC(c4ccc(OCCN5CCN(C)C(=O)[C@H]5C)cc4)CC3)nn12 [AZD5153] + C=CCn1c(=O)c2cnc(Nc3ccc(N4CCN(C)CC4)cc3)nc2n1-c1cccc(C(C)(C)O)n1 [AZD1775] (first compound max 1 µM, partner max 1 µM)	-0.0178	-0.0356	-0.0783	-0.0526	-0.0516	-0.0111	-0.112	-0.0516	-0.073	-0.0308	-0.0303	0.0105	-0.0866	-0.0342	-0.106	-0.0428	-0.0506	-0.0763	0.0045	-0.0199
COc1nnc2ccc(N3CCC(c4ccc(OCCN5CCN(C)C(=O)[C@H]5C)cc4)CC3)nn12 [AZD5153] + CC1(C)CCC(CN2CCN(c3ccc(C(=O)NS(=O)(=O)c4ccc(NCC5CCOCC5)c([N+](=O)[O-])c4)c(Oc4cnc5[nH]ccc5c4)c3)CC2)=C(c2ccc(Cl)cc2)C1 [Venetoclax] (first compound max 1 µM, 7x7, partner max 1 µM)	-0.0356	-0.0255	-0.0695	-0.0352	-0.0373	-0.049	-0.135	-0.0898	-0.0109	-0.041	-0.0445	-0.0149	0.0122	-0.0479	-0.124	-0.0371	-0.036	-0.108	-0.0676	-0.0291
COc1nnc2ccc(N3CCC(c4ccc(OCCN5CCN(C)C(=O)[C@H]5C)cc4)CC3)nn12 [AZD5153] + CCN(CCO)CCCOc1ccc2c(Nc3cc(CC(=O)Nc4cccc(F)c4)[nH]n3)ncnc2c1 [AZD2811] (first compound max 1 µM, 7x7, partner max 1 µM)	-0.0173	-0.0646	-0.0481	-0.121	-0.0285	-0.0485	-0.203	-0.0182	-0.0546	-0.0807	0.0048	-0.04	-0.0096	-0.0595	-0.0194	-0.0703	-0.0632	-0.0234	-0.0348	-0.0116
COc1nnc2ccc(N3CCC(c4ccc(OCCN5CCN(C)C(=O)[C@H]5C)cc4)CC3)nn12 [AZD5153] + C[C@@H]1COCCN1C2=NC(=NC(=C2)C3(CC3)[S@](=N)(=O)C)C4=C5C=CNC5=NC=C4 [AZD6738] (first compound max 1 µM, 7x7, partner max 10 µM)	-0.0138	0.069	0.0169	-0.0146	0.0037	-0.0057	-0.0609	0.041	-0.043	0.0037	0.0358	0.0111	-0.0442	0.0298	-0.0438	-0.0285	-0.0165	-0.0204	0.054	0.0983
COc1nnc2ccc(N3CCC(c4ccc(OCCN5CCN(C)C(=O)[C@H]5C)cc4)CC3)nn12 [AZD5153] + Cc1c2c(nn1C)CSCc1cc(n(C)n1)CSc1cc(c3ccccc3c1)OCCCc1c(C(=O)O)n(C)c3c-2c(Cl)ccc13 [AZD5991] (first compound max 1 µM, 7x7, partner max 1 µM)	-0.0168	-0.0105	-0.0092	-0.0055	0.0227	-0.0635	-0.128	0.0001	0.034	0.0103	-0.0507	-0.0625	-0.0293	0.0039	-0.0628	-0.048	0.0091	-0.0242	-0.0374	-0.0212
